Measured values reported in article PMC5120274, “Characterization of the Annonaceous acetogenin, annonacinone, a natural product inhibitor of plasminogen activator inhibitor-1” (Scientific Reports, 2016).
Values joined by “and” are separate entries in the source; they are usually repeats but may differ in a detail not shown here. Equal values may be shown once. Read-outs that look alike come from different tables or passages of the source.

Assays:
PAI-1 [1] = biological target: T1, PAI-1 (Homo sapiens, UniProt P05121); assay: chromogenic screening assay: rate of tPA inhibition by PAI-1 (spectrozyme tPA hydrolysis); format: biochemical; details: for kapp 50 μM (apparent rate constant of tPA inhibition by PAI-1): compound 50 μM, 1% DMSO, PAI-1 20 nM, tPA 10 nM, DMSO 1% control 4.4 ± 0.3 × 10^-3
T1 construct: purchased Stago BNL (Asnières sur Seine, FR)
Method: Compounds from our local collection BioCIS and from the Prestwick compound library (Prestwick chemicals, Illkirch, FR), a collection containing only FDA approved drugs (around 4000 compounds in total) were tested in a chromogenic assay measuring the inhibition rate of tPA-catalyzed spectrozyme® tPA hydrolysis in the presence of PAI-1. Compounds (20 μL, final concentration 50 μM, 1% DMSO) were dispensed in a 96 well half area Greiner plate. A mixture containing 20 μL of PAI-1 (final concentration 20 nM) and 80 μL of Spectrozyme-tPA (final concentration 400 μM) was then added, and the mixture pre-incubated for 45 minutes at 37 °C. At the end of pre-incubation time, 90 μL of the mixture were added to another 96 well half area plate containing 10 μL tPA (final concentration 10 nM). The kinetic was then measured at 405 nm for 45 min at 37 °C in an Envision microplate reader. Progress curves were fitted using the pseudo first order equation to determine the apparent rate constant k.

vitronectin-bound PAI-1 = details: cited from earlier work
PAI-1 [2] = biological target: T1, PAI-1; assay: thromboelastography (TEG) on pooled human plasma with tPA and PAI-1; format: biochemical; details: compound 50 μM, tPA 9 nM + PAI-1 22 nM
Method: 20 μL of CaCl2 (0.2 M), 10 μL of PAI-1 (final concentration 22 nM) and 10 μL of tested compounds were added in a TEG cup and pre-incubated for 20 min at room temperature. On the other hand, 1 mL of pooled citrated normal human plasma (pool of at least 10 healthy donors) was added to a vial containing 20 μL of Kaolin. 680 μl of the plasma/Kaolin mixture were then added to 20 μL of tPA (final concentration 9 nM). At the end of pre-incubation time, 320 μL of the plasma/tPA/kaolin mixture were transferred into the TEG cup and the thromboelastogram measured.

[3] = chromogenic screening assay, without vitronectin, mean ± SEM, n = 3, read-out: IC50

T1 sequence (P05121 24-402): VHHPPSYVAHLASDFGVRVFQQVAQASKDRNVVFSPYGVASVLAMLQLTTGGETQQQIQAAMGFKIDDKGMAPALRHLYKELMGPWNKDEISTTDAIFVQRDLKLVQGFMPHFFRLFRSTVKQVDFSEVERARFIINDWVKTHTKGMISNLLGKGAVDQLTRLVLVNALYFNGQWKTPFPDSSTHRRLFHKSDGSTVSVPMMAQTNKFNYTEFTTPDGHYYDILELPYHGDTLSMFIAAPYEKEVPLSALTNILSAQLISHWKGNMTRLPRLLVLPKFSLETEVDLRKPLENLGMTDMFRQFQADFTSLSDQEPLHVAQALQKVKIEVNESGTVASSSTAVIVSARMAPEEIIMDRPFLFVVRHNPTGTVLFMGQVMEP

SMILES | IC50 (PAI-1 [1]) [µM] | kapp 50 μM (apparent rate constant of tPA inhibition by PAI-1) (PAI-1 [1]; mean ± SEM, n = 3) | IC50 (PAI-1 [1]; [3]) [µM] | activity against PAI-1 bound to vitronectin (vitronectin-bound PAI-1) | also measured
CCCCCCCCCCCC[C@@H](O)[C@H]1CC[C@H]([C@H](O)CCCC[C@H](O)CCCCC[C@@H](O)CC2=CC(C)OC2=O)O1 (stereo partly shown) [Annonacine] | 6 ± 3 | 6.4 ± 0.4 × 10^-4 s^-1 | – | – | –
CCCCCCCCCCCC[C@@H](O)[C@H]1CC[C@H]([C@H](O)CCCC[C@H](O)CCCCCC2CC(CC(C)=O)C(=O)O2)O1 (stereo partly shown) [Isoannonacine] | > 50 | 1.1 ± 0.1 × 10^-3 s^-1 | – | – | –
CCCCCCCCCC[C@H](O)[C@H]1CC[C@H]([C@H]2CC[C@H]([C@H](O)CCCCCCCCCCC3CC(CC(C)=O)C(=O)O3)O2)O1 (stereo partly shown) [Isorolliniastatin-2] | – | 8.5 ± 0.6 × 10^-4 s^-1 | 10 ± 2 | – | –
CCCCCc1c(-c2ccc3cc(OCc4nnn[nH]4)ccc3c2)n(Cc2ccccc2)c2ccccc12 [PAI-749] | – | – | – | devoid of activity | –
CCCCCCCCCC[C@H](O)[C@H]1CC[C@H]([C@H]2CC[C@H]([C@H](O)CCCCCCCCCCC(O)CC3=C[C@H](C)OC3=O)O2)O1 (stereo partly shown) [Rolliniastatin-2] | – | 7.5 ± 0.5 × 10^-4 s^-1 | 19 ± 1 | – | –
O=C(O)C(=O)c1cn(Cc2ccccc2)c2ccc(-c3ccc(OC(F)(F)F)cc3)cc12 [Tiplaxtinin, reference compound] | – | 1.7 ± 0.3 × 10^-3 s^-1 | – | devoid of activity | Angle (PAI-1 [2]): 66.2 °; K (clot formation time) (PAI-1 [2]): 1.8 min; MA (maximal amplitude) (PAI-1 [2]): 24.5 mm; R (clotting time) (PAI-1 [2]): 7 min; LY30 (clot lysis 30 minutes after maximal amplitude) (PAI-1 [2]; tPA alone 94.3%, tPA + PAI-1 0%): 21.9%; LY60 (clot lysis 60 minutes after maximal amplitude) (PAI-1 [2]; tPA alone 96.8%, tPA + PAI-1 0%): 50% and 50.2%; activity against vitronectin-bound PAI-1 (vitronectin-bound PAI-1): inactive; kapp 50 μM (apparent rate constant of tPA inhibition by PAI-1) (PAI-1 [1]; mean ± SEM, n = 3, listed as tiplaxtinin): 1.7 ± 0.3 × 10^−3 s^-1
